Measurements from patent US20250263370A1 (Tay Therapeutics Limited, priority 2022, published 2025).
Several values for one entry are separate records, joined by “and”; a condition that tells them apart may be missing. Identical values can stand only once. Marks after values point to notes of the source that are not given here.

Legend:
[1] = system: collagen-induced arthritis; settings: rat, in vivo, po
[2] = system: collagen-induced arthritis; assay: Histopathologic analysis of H&E-stained hind limbs of CIA rats; assay type: in vivo, Lewis rat; settings: for pathologic observations after microscopic evaluation, overall: CIA rats, daily P.O. for 21 days
Excerpt: Hind limbs were collected following euthanasia, with the left limb being used for H&E staining.
H&E-stained slides of designated tissues from animals were transferred to an independent pathologist for microscopic evaluation (SPFBio). Samples were assigned the histologic grades based on the severity of change from tissue where CIA was not induced. Histology grades assigned were as follows: grade 1 (minimal change), grade 2 (mild change), grade 3 (moderate change), grade 4 (marked change), and grade 5 (severe change).
Moderate inflammation was also associated with increased edema fluid, fibrin, and cellular debris. Marked mixed cell inflammation was characterized by dense, widespread accumulations of neutrophils and macrophages with lesser number of lymphocytes within one or more joint spaces, synovium and periarticular soft tissues. Marked inflammation was also associated with abundant edema fluid, fibrin, and cellular debris.
Marked granulation tissue (pannus) was associated with inflammation and was characterized by widespread fibrovascular connective tissue that expanded/replaced the periarticular soft tissues of one or more joints, extended into/expanded joint spaces, was contiguous with areas of erosion/ulcer in articular cartilage and/or increased eroded surface of bone, and variably extended along the diaphysis.
Instances of minimal increased eroded surface were not associated with fragments of bone contiguous and/or surrounded by granulation tissue. […] In some areas, increased eroded surfaces were contiguous with areas of erosion/ulcer in the articular cartilages. Instance of marked increased eroded surface were often associated with fragments of bone contiguous with and/or surrounded by granulation tissue.
This observation was typically most pronounced at joint margins (transition zone). The ulceration was often associated with inflammation and granulation tissue extending through the defect to the subchondral bone.
Marked increased periosteal bone (periosteal bone formation) was characterized by extensive areas of increased bone matrix and numerous prominent osteoblasts lining trabecular surfaces along the metaphysis and/or diaphysis of one or more bones. In some areas, increased periosteal bone was contiguous with increased eroded surface and/or erosion/ulcer at articular cartilage.

[3] = system: rat anti-collagen IgG1 antibodies; assay: Rat anti-collagen IgG1 antibodies in serum of CIA rats at day 21; assay type: in vivo, Lewis rat
Description: Blood was additionally collected from groups 1-7 via cardiac puncture following euthanasia on Day 21. […] Serum was divided into two separate tubes and stored at −75±15° C. One tube was used to analyze IgG1, and the other tube was reserved for additional analyses.

[4] = hind limbs, CIA induced, 8 animals examined

SMILES: C[C@@H]1C[C@H]2[C@@H]3CCC4=CC(=O)C=C[C@]4(C)[C@@]3(F)[C@@H](O)C[C@]2(C)[C@@]1(O)C(=O)CO [dexamethasone]
- body weight over the course of the study [1]: did not exhibit weight gains over the first 13 days of the study
- pathologic observations after microscopic evaluation, overall [2]: No pathologic observations were noted
- pathologic observations after microscopic evaluation, overall ([2]; listed as Dexamethasone): no histopathological observations noted
- Number of animals: Erosion/Ulcer, cartilaginous, Marked [2, 4]: 0
- Number of animals: Erosion/Ulcer, cartilaginous, Mild [2, 4]: 0
- Number of animals: Erosion/Ulcer, cartilaginous, Minimal [2, 4]: 0
- Number of animals: Erosion/Ulcer, cartilaginous, Moderate [2, 4]: 0
- Number of animals: Granulation tissue, Marked [2, 4]: 0
- Number of animals: Granulation tissue, Mild [2, 4]: 0
- Number of animals: Granulation tissue, Minimal [2, 4]: 0
- Number of animals: Granulation tissue, Moderate [2, 4]: 0
- Number of animals: Increased bone, periosteum, Marked [2, 4]: 0
- Number of animals: Increased bone, periosteum, Mild [2, 4]: 0
- Number of animals: Increased bone, periosteum, Minimal [2, 4]: 0
- Number of animals: Increased bone, periosteum, Moderate [2, 4]: 0
- Number of animals: Increased eroded surface, bone, Marked [2, 4]: 0
- Number of animals: Increased eroded surface, bone, Mild [2, 4]: 0
- Number of animals: Increased eroded surface, bone, Minimal [2, 4]: 0
- Number of animals: Increased eroded surface, bone, Moderate [2, 4]: 0
- Number of animals: Mixed cell inflammation, Marked [2, 4]: 0
- Number of animals: Mixed cell inflammation, Mild [2, 4]: 0
- Number of animals: Mixed cell inflammation, Minimal [2, 4]: 0
- Number of animals: Mixed cell inflammation, Moderate [2, 4]: 0
- Number of animals: No Visible Lesions [2, 4]: 8
- Average rat anti-collagen IgG1 levels, Mean ([3]; Group 3 (CIA + Dex), day 21, group mean): 7833.69*
- Final Rat Anti-Collagen IgG1 Antibody Con. ([3]; Group 3 (CIA + Dexamethasone), day 21, per animal): 22019.88 units/ml and 5250.27 units/ml and 1296.14 units/ml and 2541.14 units/ml and 4553.59 units/ml and 7925.50 units/ml and 7346.16 units/ml
- Rat Anti-Collagen IgG1 Antibody Con. ([3]; before multiplying by Fold 2000, Group 3 (CIA + Dexamethasone), day 21, per animal): 11.01 units/ml and 2.63 units/ml and 0.65 units/ml and 1.27 units/ml and 5.87 units/ml and 2.28 units/ml and 3.96 units/ml and 3.67 units/ml
